Measured values as given in patent publication US20190315806A1, “POLYMYXIN DERIVATIVE, PREPARATION METHOD AND APPLICATION THEREOF” (priority 2016, published 2019).
In brackets after ≈: the same amount, converted by molar mass. Where a SMILES comes first, the peptide text is derived from it. Bridges are numbered along the chain shown (N, C = ends). [ ]: non-standard residue; d: D form. The star is where a group is joined. dPhe(4-tBu) = CC(C)(C)c1ccc(C[C@@H](N)C(=O)O)cc1; dPhe(4-CF3) = N[C@H](Cc1ccc(C(F)(F)F)cc1)C(=O)O; dBpa = N[C@H](Cc1ccc(C(=O)c2ccccc2)cc1)C(=O)O; dPhe(3-Cl) = N[C@H](Cc1cccc(Cl)c1)C(=O)O; dPhe(4-Me) = Cc1ccc(C[C@@H](N)C(=O)O)cc1; dPhe(2-Cl) = N[C@H](Cc1ccccc1Cl)C(=O)O; X2 = CC[C@H](C)CCCCC(=O)*; dDab = NCC[C@@H](N)C(=O)O; Octanoyl = CCCCCCCC(=O)*; Dab = NCC[C@H](N)C(=O)O

What was measured:
Type in all cases: cell-based
[1] = system: Escherichia coli ATCC 25922; conditions: ATCC 25922
Protocol: (§1) The minimum inhibitory concentration (MIC) was determined by means of dish double dilution method using a Multipoint inoculator according to the CLSI recommended method. The compounds of the present invention (for example, the compounds prepared in the Embodiments) and the reference substances were diluted twice each time with the broth into various desired concentrations, and appropriate amounts were added to the dishes. Agar medium is melted, and then quantitatively injected into the dish containing the drug solution, and mixed. The final concentrations of the compounds of the invention (e.g., the compounds prepared in the Embodiments) and the controls were 0.03, 0.06, 0.125, 0.25 . . . 128 μg/mL, respectively. The test bacteria were cultured overnight with nutrient broth, brain heart infusion or HTM broth. During the tests, the bacterial solutions were diluted appropriately, and the test bacteria (inoculation amount 10^4 CFU/dot) were inoculated on the surface of the drug-containing agar by a multi-point inoculator. After drying, the bacterial was incubated for 18 to 24 hours at 35° C., the results were observed, the minimum concentrations of the compounds of the present invention (for example, the compounds prepared in the Embodiments) and the controls contained in the dishes with no growth of colonies were MICs.
(§2) The strains used in the antibacterial activity experiments were from the American Type Culture Collection (ATCC) and clinical isolates.
(§3) The strains used for the experiments on antibacterial activity included Escherichia coli ATCC 25922, Klebsiella pneumoniae ATCC BAA-2146 (NDM-1), Pseudomonas aeruginosa ATCC 27853, Acinetobacter baumannii ATCC 19606 and Staphylococcus epidermidis ATCC 12228.
(§4) Tested samples: polymyxin derivatives prepared according to the technical scheme of the present invention;
(§5) Controls: polymyxin B sulfate and colistin (polymyxin E sulfate).

[2] = system: Pseudomonas aeruginosa ATCC 27853; conditions: ATCC 27853
Protocol: as §1, §2, §3, §4, §5

[3] = system: Staphylococcus epidermidis ATCC 12228; conditions: ATCC 12228
Protocol: as §1, §2, §3, §4, §5

[4] = system: Acinetobacter baumannii ATCC 19606; conditions: ATCC 19606
Protocol: as §1, §2, §3, §4, §5

[5] = system: Klebsiella pneumoniae ATCC BAA-2146 (NDM-1); assay: Antibacterial activity, MIC by dish double dilution method; conditions: ATCC BAA-2146
Protocol: as §1, §2, §3, §4, §5

Structure (SMILES): CC[C@H](C)CCCCC(=O)N[C@@H](CCN)C(=O)N[C@H](C(=O)N[C@@H](CCN)C(=O)N[C@H]1CCNC(=O)[C@H]([C@@H](C)O)NC(=O)[C@H](CCN)NC(=O)[C@H](CCN)NC(=O)[C@H](CC(C)C)NC(=O)[C@@H](Cc2ccccc2Cl)NC(=O)[C@H](CCN)NC1=O)[C@@H](C)O [Compound 18, (S)-6-methyloctanoyl-Dab-Thr-Dab-ring(4-10)[Dab-Dab-D-Phe(2-Cl)-Lue-Dab-Dab-Thr]] (X2-[Dab]T[Dab][Dab][Dab][dPhe(2-Cl)]L[Dab][Dab]T; lactam 4-C)
- MIC E. coli ATCC 25922 [1]: 1 µg/mL (≈ 0.808 µM)
- MIC P. aeruginosa ATCC 27853 [2]: 2 µg/mL (≈ 1.62 µM)
- MIC S. epidermidis ATCC 12228 [3]: 4 µg/mL (≈ 3.23 µM)
- MIC A. baumannii ATCC 19606 [4]: 0.5 µg/mL (≈ 0.404 µM)
- MIC K. pneumoniae ATCC BAA-2146 (NDM-1) [5]: 2 µg/mL (≈ 1.62 µM)

Structure (SMILES): CC[C@H](C)CCCCC(=O)N[C@@H](CCN)C(=O)N[C@H](C(=O)N[C@@H](CCN)C(=O)N[C@H]1CCNC(=O)[C@H]([C@@H](C)O)NC(=O)[C@H](CCN)NC(=O)[C@H](CCN)NC(=O)[C@H](CC(C)C)NC(=O)[C@@H](Cc2cccc(Cl)c2)NC(=O)[C@H](CCN)NC1=O)[C@@H](C)O [Compound 19, (S)-6-methyloctanoyl-Dab-Thr-Dab-ring(4-10)[Dab-Dab-D-Phe(3-Cl)-Lue-Dab-Dab-Thr]] (X2-[Dab]T[Dab][Dab][Dab][dPhe(3-Cl)]L[Dab][Dab]T; lactam 4-C)
- MIC E. coli ATCC 25922 [1]: 1 µg/mL (≈ 0.808 µM)
- MIC P. aeruginosa ATCC 27853 [2]: 2 µg/mL (≈ 1.62 µM)
- MIC S. epidermidis ATCC 12228 [3]: 4 µg/mL (≈ 3.23 µM)
- MIC A. baumannii ATCC 19606 [4]: 0.5 µg/mL (≈ 0.404 µM)
- MIC K. pneumoniae ATCC BAA-2146 (NDM-1) [5]: 2 µg/mL (≈ 1.62 µM)

Structure (SMILES): CC[C@H](C)CCCCC(=O)N[C@@H](CCN)C(=O)N[C@H](C(=O)N[C@@H](CCN)C(=O)N[C@H]1CCNC(=O)[C@H]([C@@H](C)O)NC(=O)[C@H](CCN)NC(=O)[C@H](CCN)NC(=O)[C@H](CC(C)C)NC(=O)[C@@H](Cc2ccc(C(F)(F)F)cc2)NC(=O)[C@H](CCN)NC1=O)[C@@H](C)O [Compound 23, (S)-6-methyloctanoyl-Dab-Thr-Dab-ring(4-10)[Dab-Dab-D-Phe(4-CF3)-Lue-Dab-Dab-Thr]] (X2-[Dab]T[Dab][Dab][Dab][dPhe(4-CF3)]L[Dab][Dab]T; lactam 4-C)
- MIC E. coli ATCC 25922 [1]: 1 µg/mL (≈ 0.786 µM)
- MIC P. aeruginosa ATCC 27853 [2]: 2 µg/mL (≈ 1.57 µM)
- MIC S. epidermidis ATCC 12228 [3]: 8 µg/mL (≈ 6.29 µM)
- MIC A. baumannii ATCC 19606 [4]: 1 µg/mL (≈ 0.786 µM)
- MIC K. pneumoniae ATCC BAA-2146 (NDM-1) [5]: 2 µg/mL (≈ 1.57 µM)

Structure (SMILES): CC[C@H](C)CCCCC(=O)N[C@@H](CCN)C(=O)N[C@H](C(=O)N[C@@H](CCN)C(=O)N[C@H]1CCNC(=O)[C@H]([C@@H](C)O)NC(=O)[C@H](CCN)NC(=O)[C@H](CCN)NC(=O)[C@H](CC(C)C)NC(=O)[C@@H](Cc2ccc(OC)cc2)NC(=O)[C@H](CCN)NC1=O)[C@@H](C)O [Compound 24, (S)-6-methyloctanoyl-Dab-Thr-Dab-ring(4-10)[Dab-Dab-D-Phe(4-OCH3)-Lue-Dab-Dab-Thr]] (X2-[Dab]T[Dab][Dab][Dab][dY](Me)L[Dab][Dab]T; lactam 4-C)
- MIC E. coli ATCC 25922 [1]: 1 µg/mL (≈ 0.811 µM)
- MIC P. aeruginosa ATCC 27853 [2]: 2 µg/mL (≈ 1.62 µM)
- MIC S. epidermidis ATCC 12228 [3]: 16 µg/mL (≈ 13 µM)
- MIC A. baumannii ATCC 19606 [4]: 1 µg/mL (≈ 0.811 µM)
- MIC K. pneumoniae ATCC BAA-2146 (NDM-1) [5]: 2 µg/mL (≈ 1.62 µM)

Structure (SMILES): CCOc1ccc(C[C@H]2NC(=O)[C@H](CCN)NC(=O)[C@@H](NC(=O)[C@H](CCN)NC(=O)[C@@H](NC(=O)[C@H](CCN)NC(=O)CCCC[C@@H](C)CC)[C@@H](C)O)CCNC(=O)[C@H]([C@@H](C)O)NC(=O)[C@H](CCN)NC(=O)[C@H](CCN)NC(=O)[C@H](CC(C)C)NC2=O)cc1 [Compound 25, (S)-6-methyloctanoyl-Dab-Thr-Dab-ring(4-10)[Dab-Dab-D-Phe(4-OEt)-Lue-Dab-Dab-Thr]] (X2-[Dab]T[Dab][Dab][Dab][dY](Et)L[Dab][Dab]T; lactam 4-C)
- MIC E. coli ATCC 25922 [1]: 1 µg/mL (≈ 0.802 µM)
- MIC P. aeruginosa ATCC 27853 [2]: 2 µg/mL (≈ 1.6 µM)
- MIC S. epidermidis ATCC 12228 [3]: 16 µg/mL (≈ 12.8 µM)
- MIC A. baumannii ATCC 19606 [4]: 2 µg/mL (≈ 1.6 µM)
- MIC K. pneumoniae ATCC BAA-2146 (NDM-1) [5]: 2 µg/mL (≈ 1.6 µM)

Structure (SMILES): CC[C@H](C)CCCCC(=O)N[C@@H](CCN)C(=O)N[C@H](C(=O)N[C@@H](CCN)C(=O)N[C@H]1CCNC(=O)[C@H]([C@@H](C)O)NC(=O)[C@H](CCN)NC(=O)[C@H](CCN)NC(=O)[C@H](CC(C)C)NC(=O)[C@@H](Cc2ccc(C)cc2)NC(=O)[C@H](CCN)NC1=O)[C@@H](C)O [Compound 26, (S)-6-methyloctanoyl-Dab-Thr-Dab-ring(4-10)[Dab-Dab-D-Phe(4-CH3)-Lue-Dab-Dab-Thr]] (X2-[Dab]T[Dab][Dab][Dab][dPhe(4-Me)]L[Dab][Dab]T; lactam 4-C)
- MIC E. coli ATCC 25922 [1]: 1 µg/mL (≈ 0.821 µM)
- MIC P. aeruginosa ATCC 27853 [2]: 2 µg/mL (≈ 1.64 µM)
- MIC S. epidermidis ATCC 12228 [3]: 8 µg/mL (≈ 6.57 µM)
- MIC A. baumannii ATCC 19606 [4]: 0.5 µg/mL (≈ 0.411 µM)
- MIC K. pneumoniae ATCC BAA-2146 (NDM-1) [5]: 2 µg/mL (≈ 1.64 µM)

Structure (SMILES): CC[C@H](C)CCCCC(=O)N[C@@H](CCN)C(=O)N[C@H](C(=O)N[C@@H](CCN)C(=O)N[C@H]1CCNC(=O)[C@H]([C@@H](C)O)NC(=O)[C@H](CCN)NC(=O)[C@H](CCN)NC(=O)[C@H](CC(C)C)NC(=O)[C@@H](Cc2ccc(C(C)(C)C)cc2)NC(=O)[C@H](CCN)NC1=O)[C@@H](C)O [Compound 27, (S)-6-methyloctanoyl-Dab-Thr-Dab-ring(4-10)[Dab-Dab-D-Phe(4-tBu)-Lue-Dab-Dab-Thr]] (X2-[Dab]T[Dab][Dab][Dab][dPhe(4-tBu)]L[Dab][Dab]T; lactam 4-C)
- MIC E. coli ATCC 25922 [1]: 2 µg/mL (≈ 1.59 µM)
- MIC P. aeruginosa ATCC 27853 [2]: 4 µg/mL (≈ 3.18 µM)
- MIC S. epidermidis ATCC 12228 [3]: 8 µg/mL (≈ 6.35 µM)
- MIC A. baumannii ATCC 19606 [4]: 8 µg/mL (≈ 6.35 µM)
- MIC K. pneumoniae ATCC BAA-2146 (NDM-1) [5]: 4 µg/mL (≈ 3.18 µM)

Structure (SMILES): CC[C@H](C)CCCCC(=O)N[C@@H](CCN)C(=O)N[C@H](C(=O)N[C@@H](CCN)C(=O)N[C@H]1CCNC(=O)[C@H]([C@@H](C)O)NC(=O)[C@H](CCN)NC(=O)[C@H](CCN)NC(=O)[C@H](CC(C)C)NC(=O)[C@@H](Cc2ccc(C(=O)c3ccccc3)cc2)NC(=O)[C@H](CCN)NC1=O)[C@@H](C)O [Compound 29, (S)-6-methyloctanoyl-Dab-Thr-Dab-ring(4-10)[Dab-Dab-D-Phe(4-benzoyl)-Lue-Dab-Dab-Thr]] (X2-[Dab]T[Dab][Dab][Dab][dBpa]L[Dab][Dab]T; lactam 4-C)
- MIC E. coli ATCC 25922 [1]: 2 µg/mL (≈ 1.53 µM)
- MIC P. aeruginosa ATCC 27853 [2]: 4 µg/mL (≈ 3.06 µM)
- MIC S. epidermidis ATCC 12228 [3]: 16 µg/mL (≈ 12.2 µM)
- MIC A. baumannii ATCC 19606 [4]: 1 µg/mL (≈ 0.765 µM)
- MIC K. pneumoniae ATCC BAA-2146 (NDM-1) [5]: 2 µg/mL (≈ 1.53 µM)

Structure (SMILES): CCCCCCCC(=O)N[C@@H](CCN)C(=O)N[C@H](C(=O)N[C@H](CCN)C(=O)N[C@H]1CCNC(=O)[C@H]([C@@H](C)O)NC(=O)[C@H](CCN)NC(=O)[C@H](CCN)NC(=O)[C@H]([C@@H](C)O)NC(=O)[C@@H](CC(C)C)NC(=O)[C@H](CCN)NC1=O)[C@@H](C)O [Compound 32, octanoyl-Dab-Thr-D-Dab-ring(4-10)[Dab-Dab-D-Leu-Thr-Dab-Dab-Thr]] (Octanoyl-[Dab]T[dDab][Dab][Dab][dL]T[Dab][Dab]T; lactam 4-C)
- MIC E. coli ATCC 25922 [1]: 0.5 µg/mL (≈ 0.437 µM)
- MIC P. aeruginosa ATCC 27853 [2]: 1 µg/mL (≈ 0.875 µM)
- MIC S. epidermidis ATCC 12228 [3]: >128 µg/mL
- MIC A. baumannii ATCC 19606 [4]: 0.5 µg/mL (≈ 0.437 µM)
- MIC K. pneumoniae ATCC BAA-2146 (NDM-1) [5]: 0.5 µg/mL (≈ 0.437 µM)
